Measured values as given in patent US11512053B2, “Arginine methyltransferase inhibitors and uses thereof” (priority 2013, dated 2022).
Where a name gives a salt, the structure may show the parent alone. Read-outs that look alike come from different tables or passages of the source.

Experiments:
[1] = target: full-length human PRMT1 isoform 1 (GST-tagged) (Homo sapiens, UniProt Q99873); assay: PRMT1 Biochemical Assay (3H-SAM Flashplate, peptide substrate)
Summary of the method: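 Tritiated methyl transfer from 3H-SAM onto biotinylated peptide, captured on streptavidin Flashplates and counted. Baculovirus-expressed GST-PRMT1 and compound were preincubated 30 min at room temperature in Bicine buffer pH 7.6. Cold SAM at 300 uM final ended the reaction.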

[2] = target: full-length human PRMT6 (Flag- and His-tagged) (Homo sapiens, UniProt Q96LA8); assay: PRMT6 Biochemical Assay (3H-SAM Flashplate, peptide substrate); details: read-out: Biochemical IC50 PRMT6
Summary of the method: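 Radiometric methyltransferase readout: tritium transfer onto a biotin-tagged histone H4 36-50 peptide bearing monomethyl K44 (75 nM), captured on streptavidin Flashplates after stopping with 400 uM unlabeled SAM. Enzyme is baculovirus-expressed Flag-PRMT6-His at 1 nM, given 30 min with compound at room temperature before adding 200 nM 3H-SAM and 250 nM cold SAM (pH 7.6 Bicine, 2% DMSO). Percent inhibition relative to max/min (1 mM SAH) controls, curve-fit to IC50.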

[3] = single experiment or average of multiple experiments

full-length human PRMT1 isoform 1 (GST-tagged), sequence (Q99873 with tags, fused parts or gaps): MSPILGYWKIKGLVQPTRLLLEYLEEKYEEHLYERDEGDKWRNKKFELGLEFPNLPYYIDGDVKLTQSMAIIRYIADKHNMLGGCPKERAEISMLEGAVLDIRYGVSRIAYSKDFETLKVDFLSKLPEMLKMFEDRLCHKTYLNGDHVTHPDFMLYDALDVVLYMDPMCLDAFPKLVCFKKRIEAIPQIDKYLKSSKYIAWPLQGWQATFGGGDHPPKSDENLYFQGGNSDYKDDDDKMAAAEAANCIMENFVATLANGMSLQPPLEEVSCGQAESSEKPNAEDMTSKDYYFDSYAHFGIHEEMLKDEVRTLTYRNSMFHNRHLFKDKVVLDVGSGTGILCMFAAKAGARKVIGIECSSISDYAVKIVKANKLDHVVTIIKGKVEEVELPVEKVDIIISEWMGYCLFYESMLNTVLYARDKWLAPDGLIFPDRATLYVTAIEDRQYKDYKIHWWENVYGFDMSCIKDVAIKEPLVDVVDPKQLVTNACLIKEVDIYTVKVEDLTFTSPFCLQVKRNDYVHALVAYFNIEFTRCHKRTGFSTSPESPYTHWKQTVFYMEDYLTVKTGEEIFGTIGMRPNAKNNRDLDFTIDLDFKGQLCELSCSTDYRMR
full-length human PRMT6 (Flag- and His-tagged), sequence (Q96LA8 with tags, fused parts or gaps): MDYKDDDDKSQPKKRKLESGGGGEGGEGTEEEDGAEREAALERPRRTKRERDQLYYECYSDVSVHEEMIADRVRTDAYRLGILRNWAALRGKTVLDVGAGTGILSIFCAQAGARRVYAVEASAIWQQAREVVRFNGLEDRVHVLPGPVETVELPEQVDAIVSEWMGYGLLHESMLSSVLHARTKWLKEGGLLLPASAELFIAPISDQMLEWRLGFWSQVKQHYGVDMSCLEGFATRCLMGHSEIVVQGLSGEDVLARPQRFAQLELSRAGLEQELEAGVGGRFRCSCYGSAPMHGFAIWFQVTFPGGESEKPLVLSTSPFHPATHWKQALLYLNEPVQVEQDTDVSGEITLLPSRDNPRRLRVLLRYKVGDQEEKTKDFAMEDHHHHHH

| IC50 [1] | IC50 [1, 3] | IC50 [2] | IC50 [2, 3] | Compound |
| --- | --- | --- | --- | --- |
| < 100 nM | 6.49 nM | < 100 nM | 14.7 nM | CNCCN(C)Cc1c[nH]nc1[C@H]1CC[C@@H](N(CC(C)C)C(=O)CCOc2ccccc2)CC1 [Compound 231] |
| < 100 nM | 9.11 nM | < 100 nM | 19.4 nM | CNCCN(C)Cc1c[nH]nc1[C@H]1CC[C@H](N(CC(C)C)C(=O)CCOc2ccccc2)CC1 [Compound 232] |
| < 100 nM | 20.7 nM | < 100 nM | 47.9 nM | CNCCN(C)Cc1c[nH]nc1[C@H]1CC[C@@H](N(CC(C)C)C(=O)CCOC)CC1 [Compound 233] |
| < 100 nM | 16.1 nM | < 100 nM | 84.1 nM | CNCCN(C)Cc1c[nH]nc1[C@H]1CC[C@H](N(CC(C)C)C(=O)CCOC)CC1 [Compound 234] |
| < 100 nM | 25.7 nM | < 100 nM | 34.1 nM | CNCCN(C)Cc1c[nH]nc1[C@H]1CC[C@@H](N(CCC(C)C)C(=O)CCOC)CC1 [Compound 235] |
| < 100 nM | 29 nM | < 100 nM | 62.4 nM | CNCCN(C)Cc1c[nH]nc1[C@H]1CC[C@H](N(CCC(C)C)C(=O)CCOC)CC1 [Compound 236] |
| < 100 nM | 42.2 nM | < 100 nM | 41 nM | CNCCN(C)Cc1c[nH]nc1[C@H]1CC[C@@H](N(CCC(C)C)C(=O)CCCOC)CC1 [Compound 237] |
| < 100 nM | 29.6 nM | < 100 nM | 53.9 nM | CNCCN(C)Cc1c[nH]nc1[C@H]1CC[C@H](N(CCC(C)C)C(=O)CCCOC)CC1 [Compound 238] |
| < 100 nM | 6.55 nM | < 100 nM | 7.75 nM | CCN(C(=O)CC(C)C)[C@H]1CC[C@H](c2n[nH]cc2CN(C)CCNC)CC1 [Compound 239] |
| < 100 nM | 6.1 nM | < 100 nM | 6.72 nM | CCN(C(=O)CC(C)C)[C@H]1CC[C@@H](c2n[nH]cc2CN(C)CCNC)CC1 [Compound 240] |
| < 100 nM | 22.4 nM | < 100 nM | 32.8 nM | CNCCN(C)Cc1c[nH]nc1[C@H]1CC[C@H](N(CCCOC)C(=O)CC(C)C)CC1 [Compound 241] |
| < 100 nM | 28.3 nM | < 100 nM | 41.7 nM | CNCCN(C)Cc1c[nH]nc1[C@H]1CC[C@@H](N(CCCOC)C(=O)CC(C)C)CC1 [Compound 242] |
| < 100 nM | 32.4 nM | < 100 nM | 15.1 nM | CNCCN(C)Cc1c[nH]nc1[C@H]1CC[C@H](N(CCCOC)C(=O)CCC(C)C)CC1 [Compound 243] |
| < 100 nM | 39.8 nM | < 100 nM | 54.8 nM | CNCCN(C)Cc1c[nH]nc1[C@H]1CC[C@@H](N(CCCOC)C(=O)CCC(C)C)CC1 [Compound 244] |
| < 100 nM | 18.5 nM | < 100 nM | 62.2 nM | CNCCN(C)Cc1cnn(C)c1[C@H]1CC[C@@]2(CC1)CC(C)(C)CO2 [Compound 245, Methyl ([2-[methyl([1-methyl-5-[(5S,8S)-3,3-dimethyl-1-oxaspiro[4.5]decan-8-yl]-1H-pyrazol-4-yl]methyl)amino]ethyl])amine trifluoroacetic acid salt] |
| < 100 nM | 12.6 nM | < 100 nM | 28.3 nM | CNCCN(C)Cc1c[nH]nc1[C@H]1CC[C@@H](N(CCCOC)C(=O)CCOc2ccccc2)CC1 [Compound 246] |
| < 100 nM | 11.1 nM | < 100 nM | 20.2 nM | CNCCN(C)Cc1c[nH]nc1[C@H]1CC[C@H](N(CCCOC)C(=O)CCOc2ccccc2)CC1 [Compound 247] |
| < 100 nM | 13.2 nM | < 100 nM | 32.6 nM | CNCCN(C)Cc1c[nH]nc1[C@H]1CC[C@H](N(CC(C)C)C(=O)CCCOC)CC1 [Compound 248] |
| < 100 nM | 24.2 nM | < 100 nM | 82.8 nM | CNCCN(C)Cc1c[nH]nc1[C@H]1CC[C@H](N(CC(C)C)C(=O)CCCOC)CC1 [Compound 249] |

| IC50 [1] | IC50 [1, 3] | IC50 [2] | IC50 [2, 3] | Compound |
| --- | --- | --- | --- | --- |
| < 100 nM | 24 nM | < 100 nM | 14.3 nM | CCN(C(=O)CCC(C)C)[C@H]1CC[C@H](c2n[nH]cc2CN(C)CCNC)CC1 [Compound 250] |
| < 100 nM | 13.1 nM | < 100 nM | 17.1 nM | CCN(C(=O)CCC(C)C)[C@H]1CC[C@@H](c2n[nH]cc2CN(C)CCNC)CC1 [Compound 251] |
| < 100 nM | 30.9 nM | < 100 nM | 48.3 nM | CNCCN(C)Cc1c[nH]nc1[C@H]1CC[C@H](N(CCOC)C(=O)CC(C)C)CC1 [Compound 252] |
| < 100 nM | 7.15 nM | < 100 nM | 13.4 nM | CNCCN(C)Cc1c[nH]nc1[C@H]1CC[C@]2(CCOC2(C)C)CC1 [Compound 253] |
| < 100 nM | 17.3 nM | < 100 nM | 17.6 nM | CNCCN(C)Cc1c[nH]nc1[C@H]1CC[C@H](N(CCOC)C(=O)CCC(C)C)CC1 [Compound 254] |
| < 100 nM | 10.2 nM | < 100 nM | 27.6 nM | CNCCN(C)Cc1c[nH]nc1C1CCC(C)(C)[C@@H](C(=O)OC)C1 (stereo partly shown) [Compound 255] |
| < 100 nM | 23.7 nM | < 100 nM | 38.5 nM | CNCCN(C)Cc1c[nH]nc1C1CCC(C)(C)[C@H](C(=O)OC)C1 (stereo partly shown) [Compound 256] |
| < 100 nM | 29.8 nM | 101 to 1000 nM | 153 nM | CNCCN(C)Cc1cnn(C)c1[C@H]1CC[C@]2(CC1)CC(C)(C)CO2 [Compound 257] |
| < 100 nM | 7.59 nM | < 100 nM | 18 nM | CNCCN(C)Cc1c[nH]nc1[C@H]1CC[C@H](C(=O)N(C)CCOc2ccccc2)CC1 [Compound 258] |
| < 100 nM | 15.8 nM | < 100 nM | 33.1 nM | CNCCN(C)Cc1c[nH]nc1[C@H]1CC[C@@H](C(=O)N(C)CCOc2ccccc2)CC1 [Compound 259] |
| < 100 nM | 20.2 nM | < 100 nM | 83.1 nM | CNCCN(C)Cc1c[nH]nc1[C@H]1CC[C@@]2(CCC(C)(C)O2)CC1 [Compound 260] |
| < 100 nM | 13 nM | < 100 nM | 31.7 nM | CNCCN(C)Cc1c[nH]nc1[C@H]1CC[C@@H](N(CCOC)C(=O)CCC(C)C)CC1 [Compound 261] |
| < 100 nM | 33.7 nM | < 100 nM | 81.2 nM | CNCCN(C)Cc1c[nH]nc1C1CCC(C)(C)[C@H](C(=O)NCC(C)C)C1 (stereo partly shown) [Compound 262] |
| < 100 nM | 19.2 nM | < 100 nM | 63.8 nM | CNCCN(C)Cc1c[nH]nc1C1CCC(C)(C)[C@@H](C(=O)NCCC(C)C)C1 (stereo partly drawn) [Compound 263, (1S)-2,2-dimethyl-5-[4-({methyl[2-(methylamino)ethyl]amino}methyl)-1H-pyrazol-3-yl]-N-(3-methylbutyl)cyclohexane-1-carboxamide] |
| < 100 nM | 78 nM | 101 to 1000 nM | 133 nM | CNCCN(C)Cc1c[nH]nc1C1CCC(C)(C)[C@H](C(=O)NCCOC)C1 (stereo partly shown) [Compound 264] |
| < 100 nM | 58.8 nM | 101 to 1000 nM | 174 nM | CNCCN(C)Cc1c[nH]nc1C1CCC(C)(C)[C@H](C(=O)NCCCOC)C1 (stereo partly shown) [Compound 265] |
| < 100 nM | 19.3 nM | < 100 nM | 79 nM | CNCCN(C)Cc1c[nH]nc1C1CCC(C)(C)[C@@H](C(=O)NCC(C)C)C1 (stereo partly shown) [Compound 266] |
| 3010 to 10000 nM | 3500 nM | 3010 to 10000 nM | ≥ 10000 nM | CNCCN(C)Cc1c[nH]nc1C1C[C@H](C(=O)N(C)CC(C)C)C(C)(C)[C@H](C(=O)N(C)CC(C)C)C1 (stereo partly shown) [Compound 267] |
